Measurements taken from the OligoGym collection.
Bases are written 5' to 3'; sugars and linkages follow in the same order, as letters with counts (s phosphorothioate, o phosphodiester; PS: all linkages phosphorothioate). The collection does not say whether C is 5-methylated. l = locked nucleic acid (LNA); d = 2'-deoxy (DNA)

Target: Tau
Experiment: rat primary cortical neurons, FLIPR, 25 uM ASO

First: CCAGATTCCCCAACTCA (sugars l2 d12 l3, PS)
Second: CCAGATTCCCCAACTCAC (sugars l3 d13 l2, PS)
The calcium oscillation score of the first is lower: 76.7 % of control for the first, 89 % of control for the second.

Compared with “CCAGCAGCTTCGTCTTCCAG (sugars l3 d14 l3, PS)”, CCAGCGTGATCTTC (sugars l3 d8 l3, PS) is higher in calcium oscillation score: 36.1 % of control for the first, 120 % of control for the second.

First: CCAGCGTGATCTTCCA (sugars l3 d10 l3, PS)
Second: CCAGCGTGATCTTCCATCAC (sugars l3 d14 l3, PS)
The calcium oscillation score of the first is lower: 98 % of control for the first, 112 % of control for the second.

Going from “CCAGCGTGATCTTCCATCAC (sugars l4 d11 l5, PS)” to “CCAGCGTGATCTTCCATCAC (sugars l5 d11 l4, PS)”, the calcium oscillation score falls from 124 % of control to 91.6 % of control.

Compared with “CCAGCGTGATCTTCCATCAC (sugars ldlllddddddddddlldll, PS)”, “CCAGCGTGATCTTCCATCAC (sugars lldllddddddddddlldll, PS)” is lower in calcium oscillation score: 124 % of control for the first, 121 % of control for the second.

Compared with “CCAGCTAGTGGTGCCACCTG (sugars l3 d14 l3, PS)”, CCAGGGACCCAATCTT (sugars l3 d10 l3, PS) is higher in calcium oscillation score: 1.84 % of control for the first, 76 % of control for the second.

First: CCAGGGACCCAATCTTCGAC (sugars l3 d14 l3, PS)
Second: CCAGGGACGTGGGTGATATT (sugars l3 d14 l3, PS)
The calcium oscillation score of the first is higher: 9.04 % of control for the first, 0 % of control for the second.

Going from “CCAGGGAGGCAGACACCTCG (sugars l3 d14 l3, PS)” to “CCAGTGCCTGGCACAACAGG (sugars l3 d14 l3, PS)”, the calcium oscillation score falls from 10.2 % of control to 4.03 % of control.

First: CCAGTTACCATCATACA (sugars l2 d12 l3, PS)
Second: CCATCAATTTCCCTGT (sugars l2 d10 l4, PS)
The calcium oscillation score of the first is higher: 91.8 % of control for the first, 56.3 % of control for the second.

Compared with “CCATCAATTTGGAAAGATGA (sugars l3 d14 l3, PS)”, CCATCACTTCGAACTC (sugars l3 d10 l3, PS) is higher in calcium oscillation score: 52.3 % of control for the first, ≥ 200 % of control for the second.

Going from “CCATCAGTCTTATCTCC (sugars l1 d14 l2, PS)” to “CCATCATACTCCAAGTT (sugars l3 d12 l2, PS)”, the calcium oscillation score rises from 52.9 % of control to 60.8 % of control.

Going from “CCATCCTAAGTCAACCA (sugars l2 d13 l2, PS)” to CCATCCTATCTTCTAG (sugars l3 d10 l3, PS), the calcium oscillation score falls from 62.8 % of control to 44.3 % of control.

Going from “CCATCTTAATTCATTTAATT (sugars l4 d13 l3, PS)” to CCATGATCTTAGGCTG (sugars l3 d10 l3, PS), the calcium oscillation score falls from 69.1 % of control to 17.6 % of control.

Going from CCATGTCGATGCTGC (sugars l3 d9 l3, PS) to CCATGTCGATGCTGCC (sugars l3 d10 l3, PS), the calcium oscillation score rises from 7.14 % of control to 55.1 % of control.

First: CCATTAATTTAGCCAA (sugars l3 d9 l4, PS)
Second: CCATTATCTCACTGCTT (sugars l3 d12 l2, PS)
The calcium oscillation score of the first is higher: 87.2 % of control for the first, 29.3 % of control for the second.

First: CCATTCAGATCTATCCA (sugars l3 d12 l2, PS)
Second: CCATTCCCTCCAGAACCATC (sugars l3 d14 l3, PS)
The calcium oscillation score of the first is higher: 94.3 % of control for the first, 36.3 % of control for the second.

First: CCATTTTCACTGTTCACA (sugars l2 d14 l2, PS)
Second: CCATTTTCCATATAATT (sugars l4 d9 l4, PS)
The calcium oscillation score of the first is higher: 86.3 % of control for the first, 76.5 % of control for the second.

Going from “CCATTTTCCATATAATTT (sugars l4 d10 l4, PS)” to “CCATTTTCCATATAATTTT (sugars l3 d12 l4, PS)”, the calcium oscillation score rises from 70.7 % of control to 79.3 % of control.

Going from “CCATTTTCCATATAATTTTA (sugars l3 d14 l3, PS)” to “CCATTTTTATCATCACCT (sugars l3 d13 l2, PS)”, the calcium oscillation score rises from 56.3 % of control to 63.8 % of control.

First: CCCAAGAGGCACAAGT (sugars l3 d10 l3, PS)
Second: CCCAATCTTCGACTGG (sugars l3 d10 l3, PS)
The calcium oscillation score of the first is higher: 89.5 % of control for the first, 21.7 % of control for the second.

Going from “CCCAATCTTCGACTGGACTC (sugars l3 d14 l3, PS)” to “CCCACAGCACTAAATTT (sugars l3 d11 l3, PS)”, the calcium oscillation score rises from 31.6 % of control to 83.5 % of control.

First: CCCACATAAACTCCTT (sugars l3 d10 l3, PS)
Second: CCCACATTATATCAGTA (sugars l2 d12 l3, PS)
The calcium oscillation score of the first is lower: 53.4 % of control for the first, 80.7 % of control for the second.

Going from “CCCACATTTGCAAACCA (sugars l2 d13 l2, PS)” to “CCCACATTTGCAAACCAC (sugars l2 d14 l2, PS)”, the calcium oscillation score falls from 53.9 % of control to 50.5 % of control.

Going from CCCACCAAAGACTTCA (sugars l2 d11 l3, PS) to “CCCACCCAAACTCCAAGT (sugars l2 d13 l3, PS)”, the calcium oscillation score rises from 58.3 % of control to 69.3 % of control.

Compared with “CCCACCCATCAATTTGGAAA (sugars l3 d14 l3, PS)”, “CCCACTTTTAATTAAATTTC (sugars l3 d14 l3, PS)” is higher in calcium oscillation score: 11.7 % of control for the first, 76.8 % of control for the second.

Compared with CCCAGAATTCTAACTA (sugars l4 d10 l2, PS), “CCCAGAATTCTAACTAT (sugars l4 d11 l2, PS)” is higher in calcium oscillation score: 63.5 % of control for the first, 77 % of control for the second.

Going from “CCCAGACCATCAATTTC (sugars l2 d12 l3, PS)” to “CCCAGCACACAGGCAGCCAC (sugars l3 d14 l3, PS)”, the calcium oscillation score falls from 82.2 % of control to 24.2 % of control.
